Source: US9808470B2, “Estrogenic components for use in the treatment of neurological disorders” (UNIVERSITE DE LIEGE, priority 2012, dated 2017)

What was measured:
Assay type in all cases: in vivo
[1] = test system: glial fibrillary acidic protein (GFAP); test: Ex.4 therapeutic HIE rat model: blood serum GFAP ELISA; conditions: estetrol treated animals (1, 5, 10, 50 mg/kg single ip dose after HI); PND14; vs vehicle
Protocol: (§1) Blood was withdrawn, centrifuged and the serum samples were stored at −80° C.
(§2) ELISAs for detecting the brain damage markers S100B protein (Catalog# CSB-E08066r, Cusabio Biotech Co., LTD, China), and glial fibrillary acidic protein (GFAP) (Catalog# E90068Ra, Uscn Life sciences Inc., China) in blood serum samples were performed according to the manufacturers' recommendations.
(§3) To study the therapeutic effect of estetrol, newborn rat pups were assigned to one of the following 6 groups at postnatal day 7: sham group (n=29), vehicle group (n=20), 1 mg/kg E4 group (n=16), 5 mg/kg E4 group (n=19), 10 mg/kg day E4 (n=17) and 50 mg/kg day E4 group (n=15). At postnatal day 7 animals were anesthetized with isoflurane (induction, 3.0%; maintenance, 1.5%), and the rat pups from vehicle and E4 groups passed through surgery encompassing left common carotid artery double ligation and cut. After surgery, the pups were returned to their dams and allowed to recover for 1 hour. The pups were then placed in a humidified hypoxic in vivo cabinet (CoyLab). Hypoxia was produced by the inhalation of 11%-8% of oxygen balanced by nitrogen at decreased concentration of oxygen for 20 minutes, followed by inhalation of 8% oxygen and 92% nitrogen at constant concentration for 35 minutes. All the manipulations were performed at 37° C. […]

[2] = test system: intact cells in hippocampus and cortex; test: Ex.8 neuroprotective HIE rat model: intact cell counting
Protocol: Newborn rat pups were assigned to one of the following 14 groups from postnatal day 4 (FIG. 23(A)): Sham group (n=12), Vehicle group (n=17), 5 mg/kg/day E4 (n=13), 10 mg/kg/day E4 (n=10), 5 mg/kg/day E4+1.6 mg/kg/day PROG (n=11), 10 mg/kg/day E4+1.6 mg/kg/day PROG (n=11), 5 mg/kg/day E4+16 mg/kg/day PROG (n=11), 10 mg/kg/day E4+16 mg/kg/day PROG (n=11), 5 mg/kg/day E4+136 ng//kg/day E2 (n=11), 10 mg/kg/day E4+136 ng/kg/day E2 (n=11), 5 mg/kg/day E4+1.6 mg/kg/day PROG+136 ng/kg/day (n=13) E2, 10 mg/kg/day E4+1.6 mg/kg/day PROG+136 ng/kg/day E2 (n=16), 5 mg/kg/day E4+16 mg/kg/day PROG+136 ng/kg/day E2 (n=11), 10 mg/kg/day E4+16 mg/kg/day PROG+136 ng/kg/day groups (n=13). Intraperitoneal injections of the pups from study groups were performed from postnatal day 4 to postnatal day 7 inclusively. At day 7, 30 minutes after last injection, animals were anesthetized with isoflurane (induction, 3.0%; maintenance, 1.5%), and the rat pups from vehicle and all the other groups, except the sham group, passed through surgery encompassing left common carotid artery double ligation and cut. After the procedure, the pups were returned to their dams and were allowed to recover for 1 hour. The pups were then placed in the humidified hypoxic in vivo cabinet (CoyLab, Grass Lake, Mich., USA). Hypoxia was produced by the inhalation of 11%-8% of oxygen balanced by nitrogen at decreased concentration of oxygen for 20 minutes, followed by inhalation of 8% oxygen and 92% nitrogen at constant concentration for 35 minutes. All the manipulations were performed at 37° C. The Sham group went through similar procedures without left common carotid artery ligation followed by neither hypoxia nor injection. […]
Intact cell counting was performed on hematoxylin-eosin-stained sections of the rat pups brains at magnification 400× in 3 fields of the respective brain area. […] The sections were analyzed with the aid of a microscope (Olympus BX51, Olympus, Tokyo, Japan), an image scanner (DotSlide Digital Virtual Microscopy, Olympus, Germany) and ImageJ software (NIH, US). […]

[3] = test system: glial fibrillary acidic protein (GFAP); test: Ex.3 neuroprotective HIE rat model: blood serum GFAP ELISA; conditions: 50 mg/kg E4 ip PND4-7 before HI; PND14
Protocol: as §1, §2
Newborn rat pups were assigned to one of the following 6 groups from postnatal day 4: Sham group (n=24), Vehicle group (n=14), E4 1 mg/kg/per day group (n=11), E4 5 mg/kg/per day group (n=14), E4 10 mg/kg/per day group (n=14), or E4 50 mg/kg/per day group (n=19). From postnatal day 4, rat pups were intraperitoneally injected either vehicle (Vehicle group) or E4 (1, 5, 10, or 50 mg/kg/per day in accordance to the E4 group assignment) or neither vehicle nor E4 (Sham group). At day 7, 30 minutes after last injection, animals were anesthetized with isoflurane (induction, 3.0%; maintenance, 1.5%), and the rat pups from Vehicle and E4 groups passed through surgery encompassing left common carotid artery double ligation and cut. After the procedure, the pups were returned to their dams and were allowed to recover for 1 hour. The pups were then placed in the humidified hypoxic in vivo cabinet (CoyLab, Grass Lake, Mich., USA). […]

S100B = test: Ex.4 therapeutic HIE rat model: blood serum S100B ELISA; conditions: estetrol treated animals (1, 5, 10, 50 mg/kg single ip dose after HI); PND14; vs vehicle
Protocol: as §1, §2, §3

For `C[C@]12CC[C@@H]3c4ccc(O)cc4CC[C@H]3[C@@H]1[C@@H](O)[C@@H](O)[C@@H]2O` [E4, 1,3,5(10)-estratrien-3,15α,16α,17β-tetrol], the “expression of GFAP protein in blood serum” value [1] was “significantly lower expression”, the “number of intact cells per visual field” value ([2]; 5 mg/kg/day E4, SGZ) was 72.10±5.93 and the “number of intact cells per visual field” value ([2]; 10 mg/kg/day E4, DG) was 227.30±14.18. The “number of intact cells per visual field” value ([2]; 10 mg/kg/day E4, SGZ) was 86.10±5.84, the “concentration of GFAP in blood serum” value [3] was 300.388 ± 31.232 pg/mL and the “expression of S100B protein in blood serum” value (S100B) was “significantly lower expression”.
